Source: PubChem BioAssay AID248 (DTP/NCI, 2004)
“And” between values parts separate entries of the source, which are not always exact repeats. Equal values may be shown once. Inconclusive results and toxic doses are left out. Cut-off read from the data, not from the text of the source: active = T/C of 150% or more; inactive = T/C below 125%.

Tested on: L1210 leukemia ip in BDF1 mice, survival T/C
Assay: NCI In Vivo Anticancer Drug Screen. Data for tumor model L1210 Leukemia (intraperitoneal) in B6D2F1 (BDF1) mice
Details: endpoint: mean survival time, higher = longer survival
How it was run: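 Value reflects the ratio of survival in compound-treated mice to survival in vehicle-treated controls, with both groups carrying the same transplanted tumor.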

[1] = dose: 100.0 mg/kg/injection, schedule: Q01DX009 (ip), vehicle: Klucel (hydroxypropylcellulose) (HPC)
[2] = dose: 200.0 mg/kg/injection, schedule: Q01DX009 (ip), vehicle: Klucel (hydroxypropylcellulose) (HPC)
[3] = dose: 400.0 mg/kg/injection, schedule: Q01DX009 (ip), vehicle: Klucel (hydroxypropylcellulose) (HPC)
[4] = dose: 100.0 mg/kg/injection, schedule: Q04DX003 (ip), vehicle: saline
[5] = dose: 200.0 mg/kg/injection, schedule: Q04DX003 (ip), vehicle: saline
[6] = dose: 400.0 mg/kg/injection, schedule: Q04DX003 (ip), vehicle: saline
[7] = dose: 100.0 mg/kg/injection, schedule: Q01DX009 (ip), vehicle: saline with Tween-80
[8] = dose: 100.0 mg/kg/injection, schedule: Q04DX003 (ip), vehicle: saline with Tween-80
[9] = dose: 200.0 mg/kg/injection, schedule: Q01DX009 (ip), vehicle: saline with Tween-80
[10] = dose: 200.0 mg/kg/injection, schedule: Q04DX003 (ip), vehicle: saline with Tween-80
[11] = dose: 400.0 mg/kg/injection, schedule: Q01DX009 (ip), vehicle: saline with Tween-80
[12] = dose: 400.0 mg/kg/injection, schedule: Q04DX003 (ip), vehicle: saline with Tween-80
[13] = dose: 25.0 mg/kg/injection, schedule: Q04DX003 (ip), vehicle: Klucel (hydroxypropylcellulose) (HPC)
[14] = dose: 50.0 mg/kg/injection, schedule: Q04DX003 (ip), vehicle: Klucel (hydroxypropylcellulose) (HPC)
[15] = dose: 100.0 mg/kg/injection, schedule: Q04DX002 (ip), vehicle: Klucel (hydroxypropylcellulose) (HPC)
[16] = dose: 200.0 mg/kg/injection, schedule: Q04DX002 (ip), vehicle: Klucel (hydroxypropylcellulose) (HPC)
[17] = dose: 100.0 mg/kg/injection, schedule: Q04DX003 (ip), vehicle: Klucel (hydroxypropylcellulose) (HPC)

Measured: T/C

CCCCOC(=O)CCCCC(=O)OCCCC
inactive: [1] 104 % of control | [2] 100 % of control | [3] 95 % of control

C#CC(C)(C)CC
inactive: dose: 100.0 mg/kg/injection, schedule: Q01DX009 (ip), vehicle: saline 111 % of control | dose: 200.0 mg/kg/injection, schedule: Q01DX009 (ip), vehicle: saline 97 % of control | dose: 400.0 mg/kg/injection, schedule: Q01DX009 (ip), vehicle: saline 122 % of control

O=C(Nc1cccc(F)c1)SCc1ccccc1
inactive: dose: 100.0 mg/kg/injection, schedule: Q01DX009 (ip), vehicle: gum acacia 90 % of control | dose: 200.0 mg/kg/injection, schedule: Q01DX009 (ip), vehicle: gum acacia 90 % of control | dose: 400.0 mg/kg/injection, schedule: Q01DX009 (ip), vehicle: gum acacia 98 % of control

COc1cc2cc(C)c(I)cc2cc1OC
inactive: dose: 75.0 mg/kg/injection, schedule: Q04DX003 (ip), vehicle: Klucel (hydroxypropylcellulose) (HPC) 97 % of control | dose: 150.0 mg/kg/injection, schedule: Q04DX003 (ip), vehicle: Klucel (hydroxypropylcellulose) (HPC) 97 % of control | dose: 300.0 mg/kg/injection, schedule: Q04DX003 (ip), vehicle: Klucel (hydroxypropylcellulose) (HPC) 103 % of control

CCCCCCCCC/C(C)=N\N=C(N)N
inactive: dose: 8.0 mg/kg/injection, schedule: Q01DX Z (oral), vehicle: methylcellulose (MC) 91 % of control | dose: 15.0 mg/kg/injection, schedule: Q01DX Z (ip), vehicle: methylcellulose (MC) 90 % of control | dose: 15.0 mg/kg/injection, schedule: Q01DX Z (oral), vehicle: methylcellulose (MC) 87 % of control | dose: 30.0 mg/kg/injection, schedule: Q01DX Z (oral), vehicle: methylcellulose (MC) 96 % of control | dose: 60.0 mg/kg/injection, schedule: Q01DX Z (oral), vehicle: methylcellulose (MC) 96 % of control | dose: 120.0 mg/kg/injection, schedule: Q01DX Z (oral), vehicle: methylcellulose (MC) 101 % of control

COc1ccc(C(=O)c2ccc(OC)c(OC)c2C(=O)O)cc1
inactive: [4] 106 % of control | [5] 114 % of control | [6] 103 % of control

CC1(c2cccc(N)c2)OCCO1
inactive: [7] 100 % of control | [8] 94 % of control | [9] 102 % of control | [10] 100 % of control | [11] 91 % of control | [12] 97 % of control

O=[N+]([O-])/C=C/c1cccc([N+](=O)[O-])c1
inactive: [13] 103 % of control | [14] 103 % of control

CCN(CCOC(=O)Nc1ccc(F)cc1)c1ccccc1
inactive: [1] 98 % of control | [2] 98 % of control | [3] 110 % of control

Nc1cccc2c1-c1ccccc1C2=O
inactive: dose: 50.0 mg/kg/injection, schedule: Q04DX002 (ip), vehicle: Klucel (hydroxypropylcellulose) (HPC) 103 % of control | [15] 88 % of control | [16] 103 % of control

CCOC(=O)CNC(=O)C(CSSCC(NC(=O)OCc1ccccc1)C(=O)NCC(=O)OCC)NC(=O)OCc1ccccc1 (stereo not given)
inactive: [13] 95 % of control | dose: 50.0 mg/kg/injection, schedule: Q01DX009 (ip), vehicle: Klucel (hydroxypropylcellulose) (HPC) 100 % of control | [14] 104 % of control | [1] 103 % of control | [17] 104 % of control and 90 % of control | [2] 92 % of control

O=C(O)Cc1ccc(I)cc1
inactive: dose: 100.0 mg/kg/injection, schedule: Q04DX003 (ip), vehicle: gum acacia 98 % of control | dose: 200.0 mg/kg/injection, schedule: Q04DX003 (ip), vehicle: gum acacia 96 % of control | dose: 400.0 mg/kg/injection, schedule: Q04DX003 (ip), vehicle: gum acacia 94 % of control

CCC(N)(C(=O)O)C1CCCCC1 (stereo not given)
inactive: [4] 96 % of control | [5] 94 % of control | [6] 93 % of control

CC(=O)n1ncc2ccc([N+](=O)[O-])cc21
inactive: dose: 100.0 mg/kg/injection, schedule: Q01DX009 (ip), vehicle: water 105 % of control | dose: 100.0 mg/kg/injection, schedule: Q04DX003 (ip), vehicle: water 93 % of control | dose: 200.0 mg/kg/injection, schedule: Q01DX009 (ip), vehicle: water 105 % of control | dose: 200.0 mg/kg/injection, schedule: Q04DX003 (ip), vehicle: water 100 % of control | dose: 400.0 mg/kg/injection, schedule: Q01DX009 (ip), vehicle: water 107 % of control | dose: 400.0 mg/kg/injection, schedule: Q04DX003 (ip), vehicle: water 96 % of control

CCOC(=O)Nc1cc(Nc2ccc(Cl)cc2)c2ncc(C)nc2n1
inactive: [13] 102 % of control | [14] 102 % of control | [17] 96 % of control

Cc1c(Cl)cccc1NC(=O)COc1ccc(Cl)cc1Cl
inactive: [7] 88 % of control | [9] 93 % of control | [11] 98 % of control

O=C(Nc1cccc2ccccc12)O/N=C/c1ccccn1
inactive: dose: 50.0 mg/kg/injection, schedule: Q01DX009 (ip), vehicle: saline with Tween-80 94 % of control | [7] 86 % of control and 87 % of control | [8] 87 % of control | [9] 94 % of control | [10] 90 % of control | [11] 107 % of control | [12] 95 % of control

Cc1c(O)c(CN2CCOCC2)cc(CN2CCOCC2)c1O
inactive: dose: 100.0 mg/kg/injection, schedule: Q01DX001 (ip), vehicle: saline 86 % of control | dose: 200.0 mg/kg/injection, schedule: Q01DX001 (ip), vehicle: saline 90 % of control | dose: 400.0 mg/kg/injection, schedule: Q01DX001 (ip), vehicle: saline 86 % of control

SC12CC3CC(CC(C3)C1)C2
inactive: [15] 87 % of control | [16] 94 % of control | dose: 400.0 mg/kg/injection, schedule: Q04DX002 (ip), vehicle: Klucel (hydroxypropylcellulose) (HPC) 98 % of control

Cc1cccc(Cl)c1NC(=O)Nc1cc(Cl)ccc1O
inactive: [1] 107 % of control | [2] 93 % of control | [3] 100 % of control
